The structures appear in SMILES notation.

Results on twelve compounds are retold here after patent publication US8158587B2, “Compound having histone deacetylase-inhibiting activity, and pharmaceutical composition comprising the compound as an active ingredient” (Kyushu Institute of Technology, priority 2006, dated 2012).

One test concerns the target T1, human HDAC1 (Homo sapiens, UniProt Q13547).
T1 construct: made in house; host or cells: 293T cells (transient transfection, anti-FLAG immunoprecipitation, FLAG peptide elution)
Put plainly: HDAC-inhibiting activity, coumarin-labeled acetylated histone peptide assay. Conditions: human HDAC1 from transfected 293T cells; 37° C., 30 minutes. The test is classed as biochemical. The procedure: (§1) In carrying out HDAC-inhibiting activity measurements, HDAC solutions were prepared in the following manner. In each 100-mm dish, there were sowed 1×10^7 293T cells and, after 24 hours, they were transfected with a vector (5 μg) expressing human HDAC1 or HDAC4 or murine HDAC6 using the LipofectAmine 2000 reagent (Invitrogen). The human HDAC1 expression vector used was pcDNA3-HD1 (Yang, W. M., Yao, Y. L., Sun, J. M., Davie, J. R. & Seto, E. (1997) J. Biol. Chem. 272, 28001-28007), the human HDAC4 expression vector used was pcDNA3-HD4 (Fischle, W., Emiliani, S., Hendzel, M. J., Nagase, T., Nomura, N., Voelter, W. & Verdin, E. (1999) J. Biol. Chem. 274, 11713-11720), and the murine HDAC6 expression vector used was pcDNA3-mHDA2/HDAC6 (Verdel, A. & Khochbin, S. (1999) J. Biol. Chem. 274, 2440-2445).
(§2) After 24 hours of incubation, cells were recovered, washed with PBS, suspended in lysis buffer (50 mM Tris-HCl (pH 7.5), 120 mM NaCl, 5 mM EDTA, 0.5% Nonidet P-40), and sonicated. The supernatant was collected by centrifugation and then deprived of nonspecific proteins using Protein A/G plus agarose beads (Santa Cruz Biotechnologies, Inc.). Thereafter, anti-FLAG M2 antibody (Sigma-Aldrich Inc.) was added, and the reaction was allowed to proceed at 4° C. for 2 hours.
(§3) To this were added agarose beads, the reaction was allowed to proceed at 4° C. for 3 hours, and the agarose beads were washed three times with lysis buffer and then once with HD buffer (20 mM Tris-HCl (pH 8.0), 150 mM NaCl, 10% glycerol). The protein bound to the agarose beads was recovered by 1 hour of incubation with FLAG peptide (40 μg) (Sigma-Aldrich Inc.) in HD buffer (200 μl) at 4° C., and the liquid recovered was used, as a reactant solution, in the HDAC-inhibiting activity measurement described below.
(§4) HDAC-inhibiting activity evaluation in each in vitro system was made as follows. Each test compound was dissolved in DMSO, a stock solution with a concentration of 10 mM was thus prepared and this was used as an inhibitor stock solution. The assay was carried out by incubating the HDAC solution and a coumarin-labeled acetylated histone peptide solution in the presence of the test compound at 37° C. for 30 minutes (reaction volume 20 μl). To the reaction mixture was added 30 μl of trypsin, and the aminomethylcoumarin released by the enzymatic reaction was assayed using a fluorescent plate reader. In a negative control assay, no inhibitor was added to the reaction system and the same procedure was carried out.

For another test, the target named is T2, murine HDAC6 (Mus musculus, UniProt Q9Z2V5).
T2 construct: made in house; host or cells: 293T cells (transient transfection, anti-FLAG immunoprecipitation, FLAG peptide elution)
T2 sequence (Q9Z2V5 1-1149): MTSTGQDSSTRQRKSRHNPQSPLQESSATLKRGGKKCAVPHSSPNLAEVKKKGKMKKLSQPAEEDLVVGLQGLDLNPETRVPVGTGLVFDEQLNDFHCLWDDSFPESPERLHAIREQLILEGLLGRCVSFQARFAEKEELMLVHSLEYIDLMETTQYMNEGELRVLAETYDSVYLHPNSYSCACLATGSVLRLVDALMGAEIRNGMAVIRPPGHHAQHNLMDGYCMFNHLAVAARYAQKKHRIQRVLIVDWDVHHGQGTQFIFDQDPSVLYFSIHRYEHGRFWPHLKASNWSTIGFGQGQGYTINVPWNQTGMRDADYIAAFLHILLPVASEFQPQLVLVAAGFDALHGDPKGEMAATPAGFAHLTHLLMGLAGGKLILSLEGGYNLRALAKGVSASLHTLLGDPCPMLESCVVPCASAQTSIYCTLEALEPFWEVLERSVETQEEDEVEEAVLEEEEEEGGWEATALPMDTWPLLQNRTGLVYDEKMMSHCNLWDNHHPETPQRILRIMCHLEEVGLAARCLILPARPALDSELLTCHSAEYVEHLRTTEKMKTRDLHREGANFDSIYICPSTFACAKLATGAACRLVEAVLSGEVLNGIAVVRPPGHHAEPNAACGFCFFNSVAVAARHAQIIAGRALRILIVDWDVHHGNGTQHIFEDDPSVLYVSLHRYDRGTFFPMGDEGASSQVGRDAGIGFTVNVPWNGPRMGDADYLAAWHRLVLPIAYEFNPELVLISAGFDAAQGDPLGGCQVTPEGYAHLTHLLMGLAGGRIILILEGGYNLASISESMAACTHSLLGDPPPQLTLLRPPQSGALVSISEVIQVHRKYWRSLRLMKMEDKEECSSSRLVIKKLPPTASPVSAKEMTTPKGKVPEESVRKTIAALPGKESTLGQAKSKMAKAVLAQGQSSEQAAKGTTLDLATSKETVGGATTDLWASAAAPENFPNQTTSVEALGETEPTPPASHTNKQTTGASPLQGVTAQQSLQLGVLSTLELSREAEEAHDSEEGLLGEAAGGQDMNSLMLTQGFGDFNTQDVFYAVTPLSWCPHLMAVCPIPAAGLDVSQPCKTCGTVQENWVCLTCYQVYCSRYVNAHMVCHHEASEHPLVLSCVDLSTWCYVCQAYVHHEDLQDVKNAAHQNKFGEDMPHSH
The test is described as above. The test is classed as biochemical. Conditions: murine HDAC6 from transfected 293T cells; 37° C., 30 minutes. The method, then:
as §1, §2, §3, §4

The next test concerns the target T3, human HDAC4 (Homo sapiens, UniProt P56524).
T3 construct: made in house; host or cells: 293T cells (transient transfection, anti-FLAG immunoprecipitation, FLAG peptide elution)
The description is as above. The test is classed as biochemical. Conditions: human HDAC4 from transfected 293T cells; 37° C., 30 minutes; read-out: HDAC-inhibiting activity IC50 HDAC4. The procedure:
In carrying out HDAC-inhibiting activity measurements, HDAC solutions were prepared in the following manner. […] The human HDAC1 expression vector used was pcDNA3-HD1 (Yang, W. M., Yao, Y. L., Sun, […]. & Seto, E. (1997) J. Biol. Chem. 272, 28001-28007), the human HDAC4 expression vector used was pcDNA3-HD4 ([…]., Nagase, […]. Biol. Chem. 274, 11713-11720), and the murine HDAC6 expression vector used was pcDNA3-mHDA2/HDAC6 ([…]. Biol. Chem. 274, 2440-2445). After 24 hours of incubation, cells were recovered, washed with PBS, suspended in lysis buffer (50 mM Tris-HCl (pH 7.5), 120 mM NaCl, 5 mM EDTA, 0.5% Nonidet P-40), and sonicated. The supernatant was collected by centrifugation and then deprived of nonspecific proteins using Protein A/G plus agarose beads (Santa Cruz Biotechnologies, Inc.). Thereafter, anti-FLAG M2 antibody (Sigma-Aldrich Inc.) was added, and the reaction was allowed to proceed at 4° C. for 2 hours. To this were added agarose beads, the reaction was allowed to proceed at 4° C. for 3 hours, and the agarose beads were washed three times with lysis buffer and then once with HD buffer (20 mM Tris-HCl (pH 8.0), 150 mM NaCl, 10% glycerol). […] HDAC-inhibiting activity evaluation in each in vitro system was made as follows. Each test compound was dissolved in DMSO, a stock solution with a concentration of 10 mM was thus prepared and this was used as an inhibitor stock solution. The assay was carried out by incubating the HDAC solution and a coumarin-labeled acetylated histone peptide solution in the presence of the test compound at 37° C. for 30 minutes (reaction volume 20 μl). To the reaction mixture was added 30 μl of trypsin, and the aminomethylcoumarin released by the enzymatic reaction was assayed using a fluorescent plate reader. In a negative control assay, no inhibitor was added to the reaction system and the same procedure was carried out.

Test [1] has as its system human wild type p21 promoter. Put plainly: p21 promoter assay (luciferase) in MFLL-9 cells. The test is classed as cell-based. To be noted: 20 hours, concentration giving 1000% luminescence relative to negative control (100%). The method, then: As an HDAC-inhibiting activity in an […] system, the following measurement was carried out using the p21 promoter inducing activity as an index. MFLL-9 cells used in the experiment are cells stably retaining a fusion gene (Dr. B. Vogelstaein) from the human wild type p21 promoter and luciferase gene. They were cultured using phenol red-free DMEM supplemented with 10% FBS in a steam-saturated incubator at 37° C. in the presence of 5% carbon dioxide. These MFLL-9 cells were sowed onto a 96-well microplate at a cell density of 2×10^4 cells/well and, after 24 hours of cultivation in 99 μl, per well, of the medium mentioned above, each test compound solution was added, followed by 20 hours of incubation. […] In a negative control, the same procedure was carried out without adding any inhibitor to the reaction system.
Using Luciferase Assay Reagent (Promega), the intensity of the luminescence due to the product of the enzymatic reaction involving luciferase expressed within cells was measured.

T1 sequence (Q13547 whole entry): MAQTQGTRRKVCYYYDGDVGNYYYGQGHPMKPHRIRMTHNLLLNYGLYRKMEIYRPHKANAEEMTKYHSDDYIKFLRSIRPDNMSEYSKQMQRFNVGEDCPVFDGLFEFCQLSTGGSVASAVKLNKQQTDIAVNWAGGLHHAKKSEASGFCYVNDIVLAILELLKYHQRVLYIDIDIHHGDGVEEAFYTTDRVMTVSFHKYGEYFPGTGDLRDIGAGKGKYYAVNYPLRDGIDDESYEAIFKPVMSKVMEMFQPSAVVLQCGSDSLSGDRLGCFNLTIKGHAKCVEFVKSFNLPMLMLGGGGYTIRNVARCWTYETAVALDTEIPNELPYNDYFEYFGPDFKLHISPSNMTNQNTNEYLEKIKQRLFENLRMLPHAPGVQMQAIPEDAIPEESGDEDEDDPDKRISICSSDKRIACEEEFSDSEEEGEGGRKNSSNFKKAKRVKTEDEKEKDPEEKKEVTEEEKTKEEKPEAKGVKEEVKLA
T3 sequence (P56524 whole entry): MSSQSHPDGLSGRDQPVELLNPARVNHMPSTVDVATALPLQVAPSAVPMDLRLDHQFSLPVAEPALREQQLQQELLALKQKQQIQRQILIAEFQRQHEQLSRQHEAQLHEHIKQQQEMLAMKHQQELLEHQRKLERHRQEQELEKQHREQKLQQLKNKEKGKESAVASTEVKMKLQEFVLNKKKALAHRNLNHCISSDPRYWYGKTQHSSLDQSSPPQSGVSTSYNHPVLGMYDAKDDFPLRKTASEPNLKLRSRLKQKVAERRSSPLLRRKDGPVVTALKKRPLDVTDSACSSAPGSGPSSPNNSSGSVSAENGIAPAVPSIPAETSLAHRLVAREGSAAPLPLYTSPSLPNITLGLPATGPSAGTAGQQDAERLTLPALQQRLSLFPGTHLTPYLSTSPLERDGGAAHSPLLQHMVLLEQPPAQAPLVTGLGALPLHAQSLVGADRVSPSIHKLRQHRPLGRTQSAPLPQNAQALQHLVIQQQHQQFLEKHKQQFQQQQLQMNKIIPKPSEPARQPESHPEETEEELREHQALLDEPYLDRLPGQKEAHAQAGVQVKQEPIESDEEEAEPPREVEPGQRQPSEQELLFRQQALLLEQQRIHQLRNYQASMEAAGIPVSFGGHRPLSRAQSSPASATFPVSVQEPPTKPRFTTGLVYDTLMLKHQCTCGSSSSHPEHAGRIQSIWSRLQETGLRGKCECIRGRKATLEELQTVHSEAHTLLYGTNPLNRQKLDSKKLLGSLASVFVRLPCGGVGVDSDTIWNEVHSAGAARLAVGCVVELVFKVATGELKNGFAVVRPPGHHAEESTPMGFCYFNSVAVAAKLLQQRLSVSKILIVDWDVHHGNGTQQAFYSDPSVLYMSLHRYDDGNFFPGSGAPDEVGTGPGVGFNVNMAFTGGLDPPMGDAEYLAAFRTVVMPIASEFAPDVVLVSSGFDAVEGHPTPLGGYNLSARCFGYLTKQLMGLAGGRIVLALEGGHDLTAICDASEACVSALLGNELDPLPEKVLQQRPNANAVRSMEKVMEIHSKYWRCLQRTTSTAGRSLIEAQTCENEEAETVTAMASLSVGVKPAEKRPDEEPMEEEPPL
T3 sequence (O15379 whole entry, further chain): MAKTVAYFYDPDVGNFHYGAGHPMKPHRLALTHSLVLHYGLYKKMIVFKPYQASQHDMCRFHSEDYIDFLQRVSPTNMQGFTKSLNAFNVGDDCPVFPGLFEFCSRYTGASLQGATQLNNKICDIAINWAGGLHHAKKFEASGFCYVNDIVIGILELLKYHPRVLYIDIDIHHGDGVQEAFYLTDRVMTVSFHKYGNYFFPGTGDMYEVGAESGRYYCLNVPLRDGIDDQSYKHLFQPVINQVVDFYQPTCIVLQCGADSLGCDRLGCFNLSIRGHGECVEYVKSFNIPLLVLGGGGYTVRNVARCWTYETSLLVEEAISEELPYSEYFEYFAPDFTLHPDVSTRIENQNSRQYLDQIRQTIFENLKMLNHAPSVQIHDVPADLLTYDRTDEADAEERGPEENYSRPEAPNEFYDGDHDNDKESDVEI

For `CC1(C)NC(=O)[C@H](CCCCCC(=O)COCC(F)(F)F)NC(=O)[C@H]2CCCN2C(=O)[C@H](Cc2ccccc2)NC1=O` [Ky-60, cyclo(-L-Ae9(Tfemk)-Aib-L-Phe-D-Pro-)], the IC50 was 0.37 µM at human HDAC1, greater than 100 µM at murine HDAC6 and 0.46 µM on human HDAC4. Moreover, in test [1], the “p21 promoter activity EC1000” value was 0.85 µM.

As for `CC(=O)SCC(=O)CCCCC[C@@H]1NC(=O)[C@H]2CCCN2C(=O)[C@H](Cc2ccccc2)NC(=O)C(C)(C)NC1=O` [Ky-18, cyclo(-L-Ae9(Actmk)-Aib-L-Phe-D-Pro-)], the concentration for half-maximal inhibition (IC50) was 0.11 µM on human HDAC1, 4.3 µM against murine HDAC6 and 0.19 µM on human HDAC4. Moreover, in test [1], the “p21 promoter activity EC1000” value was 0.013 µM.

As to `CSCCCCC[C@@H]1NC(=O)[C@H]2CCCN2C(=O)[C@H](Cc2ccccc2)NC(=O)C(C)(C)NC1=O` [Ky-15, cyclo(-L-Am7(methyl)-Aib-L-Phe-D-Pro-)], the half-inhibitory concentration (IC50) against human HDAC1, against murine HDAC6 and on human HDAC4 was greater than 100 µM in each case.

On to `CC1(C)NC(=O)[C@H](CCCCC[S+]([O-])CC(=O)C(F)(F)F)NC(=O)[C@H]2CCCN2C(=O)[C@H](Cc2ccccc2)NC1=O` (stereo partly drawn) [Ky-71, cyclo(-L-Am7(1,1,1-trifluoroacetonyl, sulfoxide)-Aib-L-Phe-D-Pro-)], for which the IC50 against human HDAC1, on murine HDAC6 and at human HDAC4 was greater than 100 µM in each case. In test [1], the “p21 promoter activity EC1000” value is 3.4 µM.

On to `CN(C)CC(=O)CCCCC[C@@H]1NC(=O)[C@H]2CCCN2C(=O)[C@H](Cc2ccccc2)NC(=O)C(C)(C)NC1=O` [Ky-14, cyclo(-L-Ae9(Dmamk)-Aib-L-Phe-D-Pro-)], for which the IC50 was 20 µM against human HDAC1, greater than 100 µM at murine HDAC6 and 17.9 µM on human HDAC4. The “p21 promoter activity EC1000” value in test [1] was 2.4 µM.

In the case of `CC1(C)NC(=O)[C@H](CCCCSCC(=O)C(F)(F)F)NC(=O)[C@H]2CCCN2C(=O)[C@H](Cc2ccccc2)NC1=O` [Ky-28, cyclo(-L-Am6(1,1,1-trifluoroacetonyl)-Aib-L-Phe-D-Pro-)], the IC50 against human HDAC1 was 83 µM; at murine HDAC6 it was greater than 100 µM; at human HDAC4, 18.4 µM. In test [1], the “p21 promoter activity EC1000” value was determined as 6.5 µM.

On to `CC1(C)NC(=O)C(CCCCC[S+]([O-])Cc2ccccn2)NC(=O)[C@H]2CCCN2C(=O)[C@H](Cc2ccccc2)NC1=O` (stereo partly drawn) [Ky-25, cyclo(-L-Am7(2-pyridylmethyl,sulfoxide)-Aib-L-Phe-D-Pro-)], for which, in test [1], the “p21 promoter activity EC1000” value came to 1.4 µM.

On to `CC(=O)C[S+]([O-])CCCCCC1NC(=O)[C@H]2CCCN2C(=O)[C@H](Cc2ccccc2)NC(=O)C(C)(C)NC1=O` (stereo partly drawn) [Ky-86, cyclo(-L-Am7(acetonyl,sulfoxide)-Aib-L-Phe-D-Pro-)], for which the “p21 promoter activity EC1000” value in test [1] amounted to 16.8 µM.

For the compound `CSCC(=O)CCCCC[C@@H]1NC(=O)[C@H]2CCCN2C(=O)[C@H](Cc2ccccc2)NC(=O)C(C)(C)NC1=O` [Ky-13, cyclo(-L-Ae9(Mtmk)-Aib-L-Phe-D-Pro-)], the half-inhibitory concentration (IC50) came to 0.11 µM on human HDAC1, 40.5 µM at murine HDAC6 and 0.074 µM at human HDAC4. Also, in test [1], the “p21 promoter activity EC1000” value worked out at 0.13 µM.

On to `COCC(=O)CSCCCCC[C@@H]1NC(=O)[C@H]2CCCN2C(=O)[C@H](Cc2ccccc2)NC(=O)C(C)(C)NC1=O` [Ky-85, cyclo(-L-Am7(methoxyacetonyl)-Aib-L-Phe-D-Pro-)], for which the half-maximal inhibitory concentration (IC50) turned out to be 0.13 µM on human HDAC1, 1.2 µM against murine HDAC6 and 0.077 µM at human HDAC4. In test [1], the “p21 promoter activity EC1000” value was determined as 0.48 µM.

Turning to `CC1(C)NC(=O)[C@H](CCCSCC(=O)C(F)(F)F)NC(=O)[C@H]2CCCN2C(=O)[C@H](Cc2ccccc2)NC1=O` [Ky-27, cyclo(-L-Am5(1,1,1-trifluoroacetonyl)-Aib-L-Phe-D-Pro-)], the half-maximal inhibitory concentration (IC50) against human HDAC1, on murine HDAC6 and at human HDAC4 was greater than 100 µM throughout. The “p21 promoter activity EC1000” value in test [1] was greater than 250 µM.

For the compound `CC1(C)NC(=O)[C@H](CCCCCSCC(=O)C(F)(F)F)NC(=O)[C@H]2CCCN2C(=O)[C@H](Cc2ccccc2)NC1=O` [Ky-29, cyclo(-L-Am7(1,1,1-trifluoroacetonyl)-Aib-L-Phe-D-Pro-)], the IC50 at human HDAC4 is 0.36 µM. Moreover, the “p21 promoter activity EC1000” value in test [1] amounted to 0.028 µM.
